Assay results published in patent US11230543B2, “Biaryl monobactam compounds and methods of use thereof for the treatment of bacterial infections” (priority 2015, dated 2022).
Counter-ions that a name gives are not always drawn.

Experiments:
[1] = system: Klebsiella pneumoniae expressing KPC-1 (CL6569); assay: Antibiotic activity: growth inhibitory concentration (OD600), Klebsiella pneumoniae CL6569; format: cell-based; conditions: lowest concentration inhibiting 95% of bacterial growth; in the presence of β lactamase inhibitor Relebactam 4 μg/mL; 35±2° C. for 22 hours; tested range 100 μM to 0.098 μM
Description: (§1) Antibiotic Activity: Determination of Growth Inhibitory Concentration
(§2) The concentrations of compounds required to inhibit the growth of various strains of bacteria were determined in an assay that assessed bacterial growth by measuring optical density at 600 nm (OD600). The bacterial strains tested included the clinical strains Escherichia coli expressing NDM-1 (CLB30016), Klebsiella pneumoniae expressing KPC-1 (CL6569), Acinetobacter baumannii expressing TEM-1, AmpC, and Oxa-24/40 (CL6188) and Pseudomonas aeruginosa expressing AmpC (CL5701). All compounds were tested in the presence of a β lactamase inhibitor (BLi, Relebactam) in 384-well microplates. The clinical strains were stored as frozen single use stocks, thawed and diluted into 1.1× cation-adjusted Mueller-Hinton II broth to achieve approximately 2×10^5 CFU/mL. Test compounds were dissolved in DMSO and diluted 1:50 in the assay, resulting in a final concentration range of 100 μM to 0.098 μM. On the day of the assay, 1 μL of test compound was added to the plate followed by 4 μL of 50 μg/mL BLi in MOPS buffer and 45 μL of diluted bacteria. Plates were centrifuged at 1000 rpm for 30 seconds, shaken at approximately 800 rpm for 1 minute, and incubated at 35±2° C. for 22 hours. The concentration of BLi used in the assay was 4 μg/mL. At the end of the incubation, absorbance at 600 nm was determined using a spectrophotometer. Inhibition was quantitated by identifying the lowest concentration of test compound that was required to inhibit 95% of the growth of the bacteria. The results for Examples 1-126 are reported in Table I, expressed as the concentration of compound that inhibited 95% of bacterial growth (Minimum Inhibitory Threshold Concentration; MITC95).

[2] = system: Pseudomonas aeruginosa expressing AmpC (CL5701); assay: Antibiotic activity: growth inhibitory concentration (OD600), Pseudomonas aeruginosa CL5701; format: cell-based; conditions: lowest concentration inhibiting 95% of bacterial growth; in the presence of β lactamase inhibitor Relebactam 4 μg/mL; 35±2° C. for 22 hours; tested range 100 μM to 0.098 μM
Description: as §1, §2

With `CC1(C)[C@H](NC(=O)/C(=N\O[C@@](C)(COc2ccc(-n3cc[n+](CCCN)c3)nc2)C(=O)O)c2csc(N)n2)C(=O)N1OS(=O)(=O)[O-]` [Example 113, (S)-3-((Z)-2-((((S)-1-((6-(3-(3-aminopropyl)-1H-imidazol-3-ium-1-yl)pyridin-3-yloxy)-2-carboxypropan-2-yl)oxy)imino)-2-(2-aminothiazol-4-yl)acetamido)-2,2-dimethyl-4-oxoazetidin-1-yl sulfate] the “KP_CL6569 MITC95” value [1] was 0.7813 µM and the “PA_CL5701 MITC95” value [2] was 12.5 µM.

With `C[n+]1cc(-c2ccc(OC[C@H](O/N=C(\C(=O)N[C@@H]3C(=O)N(OS(=O)(=O)[O-])C3(C)C)c3csc(N)n3)C(=O)O)cc2F)cn1C[C@@H](O)CN.O=CO` (single isomer, unassigned) [Example 43] the “KP_CL6569 MITC95” value [1] was 0.1953 µM and the “PA_CL5701 MITC95” value [2] was 3.125 µM.

With `CC1(C)[C@H](NC(=O)/C(=N\O[C@@H](COc2ccc(-c3cn(CCCN)[n+](CCCN)c3)cc2)C(=O)O)c2csc(N)n2)C(=O)N1OS(=O)(=O)[O-]` [Example 54, (S)-3-((Z)-2-(2-aminothiazol-4-yl)-2-(((S)-2-(4-(1,2-bis(3-aminopropyl)-1H-pyrazol-2-ium-4-yl)phenoxy)-1-carboxyethoxy)imino)acetamido)-2,2-dimethyl-4-oxoazetidin-1-yl sulfate] the “KP_CL6569 MITC95” value [1] was 0.09766 µM and the “PA_CL5701 MITC95” value [2] was 1.563 µM.

With `C[C@H]1[C@H](NC(=O)/C(=N\O[C@@H](COc2ccc(-c3cn(CCCN)[n+](C)c3)cc2)c2nn[nH]n2)c2csc(N)n2)C(=O)N1S(=O)(=O)O.O=C([O-])C(F)(F)F` [Example 30, 1-(3-aminopropyl)-4-(4-((R)-2-((((Z)-1-(2-aminothiazol-4-yl)-2-(((2S,3S)-2-methyl-4-oxo-1-sulfoazetidin-3-yl)amino)-2-oxoethylidene)amino)oxy)-2-(2H-tetrazol-5-yl)ethoxy)phenyl)-2-methyl-1H-pyrazol-2-ium 2,2,2-trifluoroacetate] the “KP_CL6569 MITC95” value [1] was 3.125 µM and the “PA_CL5701 MITC95” value [2] was 6.25 µM.

For `Cn1c(-c2ccc(OC[C@H](O/N=C(\C(=O)N[C@@H]3C(=O)N(OS(=O)(=O)O)C3(C)C)c3csc(N)n3)C(=O)O)cc2)cn(CCCN)c1=N.O=C(O)C(F)(F)F` [Example 32, 3-(4-(4-((S)-2-((((Z)-1-(2-aminothiazol-4-yl)-2-(((S)-2,2-dimethyl-4-oxo-1-(sulfooxy)-azetidin-3-yl)amino)-2-oxoethylidene)amino)oxy)-2-carboxyethoxy)phenyl)-2-imino-3-methyl-2,3-dihydro-1H-imidazol-1-yl)propan-1-aminium 2,2,2-trifluoroacetate], the “KP_CL6569 MITC95” value [1] was 0.1953 µM and the “PA_CL5701 MITC95” value [2] was 3.125 µM.

For `C[n+]1cc(-c2ccc(OC(CO/N=C(\C(=O)N[C@@H]3C(=O)N(OS(=O)(=O)[O-])C3(C)C)c3csc(N)n3)C(=O)O)cc2)cn1CCCN` (stereo partly drawn) [Example 84, (3S)-3-((2-(4-(1-(3-aminopropyl)-2-methyl-1H-pyrazol-2-ium-4-yl)phenoxy)-2-carboxyethoxy)imino)-2-(2-aminothiazol-4-yl)acetamido)-2,2-dimethyl-4-oxoazetidin-1-yl sulfate], the “KP_CL6569 MITC95” value [1] was 2.5 µM and the “PA_CL5701 MITC95” value [2] was 40 µM.

`CC1(C)[C@H](NC(=O)/C(=N\O[C@@H](COc2ccc(-n3cc[n+](CCCN)c3)nc2)C(=O)O)c2csc(N)n2)C(=O)N1OS(=O)(=O)[O-]` [Example 36, (S)-3-((Z)-2-(((S)-2-((6-(3-(3-aminopropyl)-1H-imidazol-3-ium-1-yl)pyridin-3-yl)oxy)-1-carboxyethoxy)imino)-2-(2-aminothiazol-4-yl)acetamido)-2,2-dimethyl-4-oxoazetidin-1-yl sulfate compound with 2,2,2-trifluoroacetic acid (1:1)] was tested, and the “KP_CL6569 MITC95” value [1] was 0.7813 µM and the “PA_CL5701 MITC95” value [2] was 6.25 µM.

For `CC1(C)[C@H](NC(=O)/C(=N\O[C@@H](COc2ccc(-n3cc(CCCN)[n+](CC4(F)CNC4)c3)nc2)C(=O)O)c2csc(N)n2)C(=O)N1OS(=O)(=O)[O-]` [Example 124, (S)-3-((Z)-2-(((S)-2-((6-(4-(3-aminopropyl)-3-((3-fluoroazetidin-3-yl)methyl)-1H-imidazol-3-ium-1-yl)pyridin-3-yl)oxy)-1-carboxyethoxy)imino)-2-(2-aminothiazol-4-yl)acetamido)-2,2-dimethyl-4-oxoazetidin-1-yl sulfate], the “KP_CL6569 MITC95” value [1] was 0.7813 µM and the “PA_CL5701 MITC95” value [2] was 12.5 µM.

`C[n+]1c(N)c(-c2ccc(OC[C@H](O/N=C(\C(=O)N[C@@H]3C(=O)N(OS(=O)(=O)[O-])C3(C)C)c3nc(N)sc3Cl)C(=O)O)cc2F)cn1CCCN` [Example 48, (S)-3-((Z)-2-(((S)-2-(4-(3-Amino-1-(3-aminopropyl)-2-methyl-1H-pyrazol-2-ium-4-yl)-3-fluorophenoxy)-1-carboxyethoxy)imino)-2-(2-amino-5-chlorothiazol-4-yl)acetamido)-2,2-dimethyl-4-oxoazetidin-1-yl sulfate] was tested, and the “KP_CL6569 MITC95” value [1] was 0.7813 µM and the “PA_CL5701 MITC95” value [2] was 6.25 µM.

With `CC1(C)[C@H](NC(=O)/C(=N\O[C@H](COc2ccc(Nc3nccn3CCCN)nc2)C(=O)O)c2csc(N)n2)C(=O)N1OS(=O)(=O)O` [Example 37B, 3-(2-((5-((R)-2-((((Z)-1-(2-aminothiazol-4-yl)-2-(((S)-2,2-dimethyl-4-oxo-1-(sulfooxy)azetidin-3-yl)amino)-2-oxoethylidene)amino)oxy)-2-carboxyethoxy)pyridin-2-yl)amino)-1H-imidazol-1-yl)propan-1-aminium 2,2,2-trifluoroacetate] the “KP_CL6569 MITC95” value [1] was 6.25 µM and the “PA_CL5701 MITC95” value [2] was 25 µM.

With `C[C@H]1[C@H](NC(=O)/C(=N\O[C@@H](COc2ccc(-c3cn(CCCN)[n+](C)c3)cc2)C(=O)O)c2csc(N)n2)C(=O)N1S(=O)(=O)[O-]` [Example 7, (2S,3S)-3-((Z)-2-(((S)-2-(4-(1-(3-aminopropyl)-2-methyl-1H-pyrazol-2-ium-4-yl)phenoxy)-1-carboxyethoxy)imino)-2-(2-aminothiazol-4-yl)acetamido)-2-methyl-4-oxoazetidine-1-sulfonate] the “KP_CL6569 MITC95” value [1] was 1.563 µM and the “PA_CL5701 MITC95” value [2] was 12.5 µM.

`CC1(C)[C@H](NC(=O)/C(=N\O[C@@H](COc2ccc(Nc3cc[n+](CC4CNC4)cc3)nc2)C(=O)O)c2csc(N)n2)C(=O)N1OS(=O)(=O)[O-]` [Example 108, (S)-3-((Z)-2-(2-aminothiazol-4-yl)-2-(((S)-2-((6-((1-(azetidin-3-ylmethyl)pyridin-1-ium-4-yl)amino)pyridin-3-yl)oxy)-1-carboxyethoxy)imino)acetamido)-2,2-dimethyl-4-oxoazetidin-1-yl sulfate] was tested, and the “KP_CL6569 MITC95” value [1] was 0.7813 µM and the “PA_CL5701 MITC95” value [2] was 12.5 µM.

`C[C@@H]1[C@H](NC(=O)/C(=N\O[C@@H](COc2ccc(-c3cn(CCCN)[n+](C)c3)cc2)C(=O)O)c2csc(N)n2)C(=O)N1S(=O)(=O)[O-]` [Example 9, (2R,3S)-3-((Z)-2-(((S)-2-(4-(1-(3-aminopropyl)-2-methyl-1H-pyrazol-2-ium-4-yl)phenoxy)-1-carboxyethoxy)imino)-2-(2-aminothiazol-4-yl)acetamido)-2-methyl-4-oxoazetidine-1-sulfonate] was tested, and the “KP_CL6569 MITC95” value [1] was 0.3906 µM and the “PA_CL5701 MITC95” value [2] was 6.25 µM.

With `Cc1c(-c2ccc(OC[C@H](O/N=C(\C(=O)N[C@@H]3C(=O)N(OS(=O)(=O)O)C3(C)C)c3csc(N)n3)C(=O)O)cc2)c(C)[n+](C)n1CCCN.O=C([O-])C(F)(F)F` [Example 20, 1-(3-aminopropyl)-4-(4-((S)-2-((((Z)-1-(2-aminothiazol-4-yl)-2-(((S)-2,2-dimethyl-4-oxo-1-(sulfooxy)azetidin-3-yl)amino)-2-oxo-ethylidene)amino)oxy)-2-carboxyethoxy)phenyl)-2,3,5-trimethyl-1H-pyrazol-2-ium 2,2,2-trifluoroacetate] the “KP_CL6569 MITC95” value [1] was 0.3906 µM and the “PA_CL5701 MITC95” value [2] was 6.25 µM.

With `CC1(C)[C@H](NC(=O)/C(=N\O[C@@H](COc2ccc(-n3cc[n+](CCC[N+](C)(C)C)c3)nc2)C(=O)O)c2csc(N)n2)C(=O)N1OS(=O)(=O)O` [Example 110, (S)-3-((Z)-2-(2-aminothiazol-4-yl)-2-(((S)-1-carboxy-2-((6-(3-(3-(trimethylammonio)propyl)-1H-imidazol-3-ium-1-yl)pyridin-3-yl)oxy)ethoxy)imino)acetamido)-2,2-dimethyl-4-oxoazetidin-1-yl sulfate] the “KP_CL6569 MITC95” value [1] was 1.563 µM and the “PA_CL5701 MITC95” value [2] was 50 µM.

`CC1(C)[C@H](NC(=O)/C(=N\O[C@@H](COc2ccc(-c3cn(CCCN)c(N)n3)cc2)C(=O)O)c2csc(N)n2)C(=O)N1OS(=O)(=O)O.O=C(O)C(F)(F)F` [Example 31, 3-(2-amino-4-(4-((S)-2-((((Z)-1-(2-aminothiazol-4-yl)-2-(((S)-2,2-dimethyl-4-oxo-1-(sulfooxy)azetidin-3-yl)amino)-2-oxoethylidene)amino)oxy)-2-carboxyethoxy)phenyl)-1H-imidazol-1-yl)propan-1-aminium 2,2,2-trifluoroacetate] was tested, and the “KP_CL6569 MITC95” value [1] was 0.3906 µM and the “PA_CL5701 MITC95” value [2] was 3.125 µM.
